The results in this text go back to patent publication US20230278957A1, “TREX1 INHIBITORS AND USES THEREOF” (WAKE FOREST UNIVERSITY HEALTH SCIENCES, priority 2020, published 2023).

One assay has as its target T1, hT1 (Homo sapiens, UniProt Q9NSU2).
T1 construct: recombinant hTREX1(1-242)^WT
T1 sequence (Q9NSU2 1-242): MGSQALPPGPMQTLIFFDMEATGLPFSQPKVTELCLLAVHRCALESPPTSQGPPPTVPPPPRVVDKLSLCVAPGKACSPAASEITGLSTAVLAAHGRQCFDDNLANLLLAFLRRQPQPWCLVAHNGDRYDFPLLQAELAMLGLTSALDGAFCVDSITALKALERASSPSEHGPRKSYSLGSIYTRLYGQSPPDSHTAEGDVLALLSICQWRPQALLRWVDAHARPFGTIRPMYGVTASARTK
Briefly: jump-dilution reversibility of inhibition. To be noted: for reversibility classification: by IC50 ratio of jump-dilution. It is filed as biochemical. The procedure:
FIG. 4: Reversibility of Inhibition for Lead Compounds. Panel A: Summary chart of the results for each lead compound. IC50 ratios were calculated by dividing the […]. An IC50 ratio of 10 is expected for irreversible inhibitors, and the results were classified as follows: ≥ 5.0 → Irreversible, 2.0-5.0 → Ambiguous, 0.5-2.0 → Reversible. Panels B-G: Standard IC50 experiments were conducted with various concentrations of each lead compound. However, before enzyme addition to the reaction components the inhibitor or vehicle was pre-incubated with either the reaction components at ~1X the final concentration (‘Reaction Pre-Incubation’) or the enzyme at ~10X the final concentration (‘Enzyme Pre-Incubation’). The enzyme and reaction components were then combined to initiate reactions, and IC50 calculated as discussed earlier. TIM190 was included as an example of an irreversible inhibitor. Plots were generated in Prism (GraphPad), and figure was assembled in PowerPoint.
To determine whether our leads’ inhibition mechanisms were reversible, we utilized a strategy known as a ‘jump-dilution′^76. With this strategy, an inhibitor is initially incubated with the target at a high concentration, then, the inhibitor and target are diluted into reaction mix and the potency of the inhibitor is compared to a similar reaction without the pre-incubation step. If an inhibitor is covalent, time-dependent (slow-binding), or otherwise irreversible, then it will display potency consistent with the higher initial concentration, while reversible inhibitors’ potency is not meaningfully affected by the pre-incubation. We performed jump dilution experiments for our leads with our earlier described biochemical assay (FIG. 3). Under our conditions, irreversible inhibitors were expected to display a 10-fold potency increase in the jump-dilution reactions.

Assay [1] has as its target T2, recombinant hTREX1(1-242)WT (hT1) (Homo sapiens, UniProt Q9NSU2).
T2 construct: recombinant hTREX1(1-242)^WT
T2 sequence (Q9NSU2 1-242): T1 sequence (Q9NSU2 1-242)
As to the kind of experiment: fluorescence-based exonuclease assay, hTREX1 IC50 and HTS. The format is biochemical. How it is done:
FIG. 1: Determining IC50 of Candidate Compounds. […] Standard time-course reactions were prepared in 150 µL volumes containing vehicle or indicated concentrations of inhibitor (Panel A= 0.1-10 µM; Panel C= 1-50 µM), incubated 1 hr at room temperature, and 20 µL samples of each reaction taken at time-points of 0, 5, 10, 20, 30, 45, & 60 minutes and quenched in 20 µL of 15X SYBR Green. Fluorescence was measured, and fluorescence versus time plots were normalized to maximal initial fluorescence and background fluorescence. Plots were fitted with nonlinear regression, then initial velocities of each reaction interpolated and normalized to vehicle-only control reactions to give percent activity. Plots of inhibitor concentration versus percent activity were fit with nonlinear regression to interpolate compound IC50. Plots were generated in Prism (GraphPad) and combined in PowerPoint. Active compounds had IC50 determined in at least three separate experiments. Panels E-F: Gel Assay Validation of Hit Compound IC50. Several hit compounds, including those shown, had their IC50 confirmed via gel assay to validate efficacy of the fluorescence-based biochemical assay. Results of the gel and fluorescence assays were in agreement for all compounds tested. Standard time-course reactions containing nicked plasmid were prepared in 150 µL volumes with the indicated concentrations of inhibitor, and incubated at room temperature. Reaction samples were taken at indicated times, quenched, dried in vacuo, resuspended, then visualized by agarose gel electrophoresis. Control lanes containing supercoiled dsDNA plasmid (‘Plasmid’) and undegraded nicked dsDNA plasmid (‘Nicked’) are included. Low-MW residual bands are ssDNA plasmid leftover from TREX1 exonuclease activity.
We altered a reported fluorescence-based exonuclease assay^17,23 for the purposes of HTS. The assay parameters were optimized to limit materials use and maximize the dynamic range of the assay readout. We used this assay to perform a HTS of the three mentioned libraries against recombinant hTREX1(1-242)^WT, hereafter abbreviated as ‘hT1’. In the case of all libraries, compounds eliciting ≤50% activity at their indicated screening concentrations were identified as ‘candidates’.
The biochemical assay used for HTS was also applied to determining candidate IC50. Briefly, time-course reactions were performed for a range of concentrations for each candidate, and plots of fluorescence vs time were normalized to the initial fluorescence of the reaction and the plate-wide background fluorescence. This normalization helped address compounds with inherent effects on the fluorescent readout. Initial velocities were calculated from normalized plots and used to calculate percent activities relative to vehicle-only control reactions. Standard dose-response curves were then constructed to interpolate candidate IC50. […] Candidates that initially tested with IC50 ≤100 µM had their IC50 redetermined in two additional, independent experiments. […] To validate the efficacy of the fluorescence-based assay at determining IC50, several of the hit compounds had their IC50 confirmed using a gel assay previously described by our lab^23. Briefly, a dsDNA plasmid is nicked, the substrate is incubated with TREX1 which degrades off (partially or completely) the nicked strand, and the reaction is quenched in ethanol, dried in vacuo, and visualized via agarose gel electrophoresis. Example data of these validation assays is provided (FIG. 1, Panels E-F).

Setting [2] is: experiment 1, read-out: IC50 #1.
Setting [3] is: experiment 2, read-out: IC50 #2.
[4] abbreviates: experiment 3, read-out: IC50 #3.
[5] abbreviates: median of three independent experiments, read-out: Median IC50.

Read-outs that look alike come from different tables or passages of the source.

Regarding `Cc1ccc(N2NC(=O)/C(=C/c3ccc(-c4ccc5c(c4)C(=O)NC5=O)o3)C2=O)cc1C` [TIM207], the reversibility classification result on hT1 was “ambiguous”. On hT1 (enzyme pre-incubation vs control reaction, 10-fold expected for irreversible inhibitors), the “increase in potency as a result of the jump-dilution” value is recorded as 2.9 fold. Further, the IC50 (in general, the concentration that inhibits the measured activity by half) turned out to be 13.5 µM in assay [1] (setting [2]), 7.8 µM in assay [1] (setting [3]), 8.9 µM in assay [1] (setting [4]) and 8.9 µM in assay [1] (setting [5]).
Regarding `COc1ccc2[nH]c3c(c2c1)CCC[C@H]3NC(=O)COc1ccc2c3c(c(=O)oc2c1)CCCC3` [TIM184], the IC50 was 5.1 µM in assay [1] (setting [2]), 7 µM in assay [1] (setting [3]), 7 µM in assay [1] (setting [4]) and 7 µM in assay [1] (setting [5]).
In the case of `COc1ccc(N2C(=O)c3ccc(Oc4ccc(Oc5ccc(C(=O)O)cc5)cc4)cc3C2=O)cc1` [TIM050], the IC50 stood at 3.7 µM in assay [1] (setting [2]), 3 µM in assay [1] (setting [3]), 5.3 µM in assay [1] (setting [4]) and 3.7 µM in assay [1] (setting [5]).
For the molecule `Cn1c(O)c(N=NC(=O)[C@@H]2COc3cc4ccccc4cc3O2)c2cc(Br)ccc21` [TIM191], the IC50 in assay [1] (setting [2]) came out at 8.5 µM; in assay [1] (setting [3]) it was 7.8 µM; in assay [1] (setting [4]) it was 10 µM; in assay [1] (setting [5]), 8.5 µM.
For the molecule `CC(C)(C)c1ccc(CC2CCN(C(=O)c3cncn3-c3cccc(-c4cccc5c4sc4ccccc45)c3)CC2)cc1` [TIM181], the IC50 was found to be 3.5 µM in assay [1] (setting [2]), 5.9 µM in assay [1] (setting [3]), 4.6 µM in assay [1] (setting [4]) and 4.6 µM in assay [1] (setting [5]).
In the case of `O=C1c2cccc([N+](=O)[O-])c2C(=O)N1c1cccc(-c2nc3ccccc3c(=O)o2)c1` [TIM136], the IC50 came out at 5.7 µM in assay [1] (setting [2]), 9.9 µM in assay [1] (setting [3]), 10.2 µM in assay [1] (setting [4]) and 9.9 µM in assay [1] (setting [5]).
For the molecule `Cc1cnc(/C=C/c2ccccc2)c2[nH]c3ccccc3c12` [TIM047], the IC50 is 16 µM in assay [1] (setting [2]), 6.8 µM in assay [1] (setting [3]), 15 µM in assay [1] (setting [4]) and 15 µM in assay [1] (setting [5]).
On to `Cc1ccc(-n2c(=O)c3cc4c(=O)n(-c5ccc(C)c(C)c5)c(=O)c4c(C(=O)c4ccc(C(=O)O)cc4)c3c2=O)cc1C` [TIM148], for which the IC50 in assay [1] (setting [2]) came to 6.4 µM; in assay [1] (setting [3]), 8.5 µM; in assay [1] (setting [4]), 11.9 µM; in assay [1] (setting [5]), 8.5 µM.
Take `O=C(O)c1ccc(-c2ccc(/C=c3\sc4nc5cc(Br)cnc5n4c3=O)o2)cc1` [TIM190]: the reversibility classification result on hT1 was “irreversible”. The IC50 in assay [1] (setting [2]) came to 10.7 µM; in assay [1] (setting [3]), 10.7 µM; in assay [1] (setting [4]), 13.5 µM; in assay [1] (setting [5]) it was 10.7 µM.
For `CCn1c2ccccc2c2cc([C@H]3Nc4ccccc4NC4=C3C(=O)C[C@@H](c3ccc(OC)cc3)C4)ccc21` [TIM137], the IC50 in assay [1] (setting [2]) turned out to be 6.7 µM; in assay [1] (setting [3]), 16.2 µM; in assay [1] (setting [4]), 5.6 µM; in assay [1] (setting [5]), 6.7 µM.
Turning to `Cc1cc(C)c(S(=O)(=O)Nc2ccc3c(c2)c2c(n3S(=O)(=O)c3cc(C)c(C)cc3C)CCCC2=O)cc1C` [TIM146], the IC50 in assay [1] (setting [2]) turned out to be 15 µM; in assay [1] (setting [3]), 6.4 µM; in assay [1] (setting [4]) it was 37.9 µM; in assay [1] (setting [5]) it was 15 µM.
Regarding `O=C1Nc2ccc(S(=O)(=O)ON3C(=O)c4cccc5cccc(c45)C3=O)c3cccc1c23` [TIM213], the IC50 in assay [1] (setting [2]) worked out at 2.4 µM; in assay [1] (setting [3]), 5 µM; in assay [1] (setting [4]), 10.7 µM; in assay [1] (setting [5]), 5 µM.
Regarding `Cc1cccc(C(=O)Nc2ccc(-c3cc4ccccc4oc3=O)cc2)c1` [TIM003], the IC50 in assay [1] (setting [2]) turned out to be 24.9 µM; in assay [1] (setting [3]), 7.8 µM; in assay [1] (setting [4]), 8.8 µM; in assay [1] (setting [5]) it was 8.8 µM.
`COc1cc2c3c(ccc4c5ccc6c7c(cc(OC)c(c1c34)c75)-c1ccccc1C6=O)-c1ccccc1C2=O` [TIM192]: the IC50 amounted to 13.3 µM in assay [1] (setting [2]), 13 µM in assay [1] (setting [3]), 8.1 µM in assay [1] (setting [4]) and 13 µM in assay [1] (setting [5]).
Regarding `O=c1c2cnc3nc(-c4ccc(Cl)cc4)nn3c2ccn1Cc1cccnc1` [TIM215], the IC50 in assay [1] (setting [2]) amounted to 13.9 µM; in assay [1] (setting [3]), 14.6 µM; in assay [1] (setting [4]), 12 µM; in assay [1] (setting [5]) it was 13.9 µM.
For the molecule `N#Cc1c(O)nc(SCC(=O)N2c3ccccc3Sc3ccccc32)nc1-c1ccccc1` [TIM183], the IC50 in assay [1] (setting [2]) came to 3.6 µM; in assay [1] (setting [3]) it was 8.5 µM; in assay [1] (setting [4]), 8.8 µM; in assay [1] (setting [5]), 8.5 µM.
Regarding `Cc1ccc(-c2noc(-c3cc(N4CCC(C(N)=O)CC4)nc4ccccc34)n2)cc1` [TIM178], the IC50 worked out at 6.9 µM in assay [1] (setting [2]), 3.7 µM in assay [1] (setting [3]), 7.2 µM in assay [1] (setting [4]) and 6.9 µM in assay [1] (setting [5]).
For the molecule `Cc1ccc2nc(N3C(=O)C(=O)C(=C(O)c4ccc5c(c4)C[C@H](C)O5)[C@@H]3c3cccs3)sc2c1` [TIM185], the IC50 in assay [1] (setting [2]) worked out at 13.1 µM; in assay [1] (setting [3]), 14.9 µM; in assay [1] (setting [4]), 113 µM; in assay [1] (setting [5]) it was 14.9 µM.
